Reference: ChEMBL document CHEMBL1201862, “PubChem BioAssay data set” (2004)
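All cell lines were grown in 96-well plates and treated with compound for 48 hours. Here, GI50 denotes the concentration required for 50% inhibition of growth.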 Activity calls are given as the source filed them. Rule as the data show it: active = GI50 up to about 1.1 µM and inactive = higher.

Legend:
Test in all cases: DTP human tumour cell line panel, 48 h
K562 = test system: K562
A549 = test system: A549
HCT-116 = test system: HCT-116
SF-295 = test system: SF-295
RPMI-8226 = test system: RPMI-8226
HCT-15 = test system: HCT-15
HT-29 = test system: HT-29
SK-MEL-28 = test system: SK-MEL-28
SNB-75 = test system: SNB-75
OVCAR-8 = test system: OVCAR-8
OVCAR-3 = test system: OVCAR-3
OVCAR-4 = test system: OVCAR-4
MOLT-4 = test system: MOLT-4
OVCAR-5 = test system: OVCAR-5
NCI-H522 = test system: NCI-H522
SF-539 = test system: SF-539

## O=C(Nc1c(Cl)cc([N+](=O)[O-])cc1Cl)C(=O)C(C(=O)c1ccncc1)C1OC(=O)c2ccccc21 (centres undefined)
K562
  GI50: > 100 µM (inactive)
A549
  GI50: > 100 µM (inactive)
HCT-116
  GI50: > 100 µM (inactive)
SF-295
  GI50: > 100 µM (inactive)
RPMI-8226
  GI50: > 100 µM (inactive)
HCT-15
  GI50: > 100 µM
HT-29
  GI50: > 100 µM (inactive)
SK-MEL-28
  GI50: > 100 µM (inactive)
SNB-75
  GI50: 35 µM (inactive)
OVCAR-8
  GI50: > 100 µM (inactive)
OVCAR-3
  GI50: > 100 µM (inactive)
OVCAR-4
  GI50: > 100 µM (inactive)
MOLT-4
  GI50: > 100 µM (inactive)
OVCAR-5
  GI50: > 100 µM (inactive)
NCI-H522
  GI50: > 100 µM (inactive)

## COC(=O)c1ccccc1N(C(=O)c1ccccc1)c1ccccc1C
K562
  GI50: 41.1 µM (inactive)
A549
  GI50: 61.9 µM (inactive)
HCT-116
  GI50: 56.8 µM (inactive)
SF-295
  GI50: 44.2 µM (inactive)
HCT-15
  GI50: 38.5 µM
HT-29
  GI50: 39.4 µM (inactive)
SK-MEL-28
  GI50: > 100 µM (inactive)
SNB-75
  GI50: > 100 µM (inactive)
OVCAR-8
  GI50: 37.5 µM (inactive)
OVCAR-3
  GI50: 34.6 µM (inactive)
OVCAR-4
  GI50: 44.2 µM (inactive)
MOLT-4
  GI50: 22.4 µM (inactive)
OVCAR-5
  GI50: > 100 µM (inactive)
NCI-H522
  GI50: 30.7 µM (inactive)

## CCn1c(C)nn2c(=O)c3ccccc3nc2c1=O
K562
  GI50: > 100 µM (inactive)
A549
  GI50: > 100 µM (inactive)
HCT-116
  GI50: > 100 µM (inactive)
SF-295
  GI50: > 100 µM (inactive)
RPMI-8226
  GI50: > 100 µM (inactive)
SF-539
  GI50: > 100 µM (inactive)
HCT-15
  GI50: > 100 µM
HT-29
  GI50: > 100 µM (inactive)
SK-MEL-28
  GI50: > 100 µM (inactive)
SNB-75
  GI50: > 100 µM (inactive)
OVCAR-8
  GI50: > 100 µM (inactive)
OVCAR-3
  GI50: > 100 µM (inactive)
OVCAR-4
  GI50: > 100 µM (inactive)
MOLT-4
  GI50: > 100 µM (inactive)
OVCAR-5
  GI50: > 100 µM (inactive)

## CC1=NN(c2ccccc2)C(=O)C1/N=N/c1ccc(Br)cc1C (centres undefined)
K562
  GI50: > 100 µM (inactive)
A549
  GI50: 40.5 µM (inactive)
HCT-116
  GI50: 81.3 µM (inactive)
SF-295
  GI50: 72.8 µM (inactive)
RPMI-8226
  GI50: > 100 µM (inactive)
SF-539
  GI50: 58.9 µM (inactive)
HCT-15
  GI50: > 100 µM
HT-29
  GI50: > 100 µM (inactive)
SK-MEL-28
  GI50: > 100 µM (inactive)
SNB-75
  GI50: 19.1 µM (inactive)
OVCAR-8
  GI50: 95.9 µM (inactive)
OVCAR-3
  GI50: > 100 µM (inactive)
OVCAR-4
  GI50: 62.7 µM (inactive)
MOLT-4
  GI50: > 100 µM (inactive)
OVCAR-5
  GI50: > 100 µM (inactive)

## CCOC(=O)Nc1ccc(S(=O)(=O)OC)cc1.CCOC(=O)Nc1ccc(S(=O)(=O)OC)cc1.NNC(=O)c1ccncc1
K562
  GI50: 40.2 µM (inactive)
A549
  GI50: > 50 µM (inactive)
HCT-116
  GI50: 14.3 µM (inactive)
SF-295
  GI50: > 50 µM (inactive)
RPMI-8226
  GI50: 14.6 µM (inactive)
SF-539
  GI50: > 50 µM (inactive)
HCT-15
  GI50: > 50 µM
HT-29
  GI50: 44.7 µM (inactive)
SK-MEL-28
  GI50: > 50 µM (inactive)
SNB-75
  GI50: > 50 µM (inactive)
OVCAR-8
  GI50: > 50 µM (inactive)
OVCAR-3
  GI50: > 50 µM (inactive)
OVCAR-4
  GI50: > 50 µM (inactive)
MOLT-4
  GI50: > 50 µM (inactive)
OVCAR-5
  GI50: > 50 µM (inactive)

## O=C(/C=C1\NC(=O)c2ccccc2N1)c1ccncc1
K562
  GI50: > 100 µM (inactive)
A549
  GI50: > 100 µM (inactive)
HCT-116
  GI50: > 100 µM (inactive)
SF-295
  GI50: > 100 µM (inactive)
RPMI-8226
  GI50: > 100 µM (inactive)
HCT-15
  GI50: > 100 µM
HT-29
  GI50: > 100 µM (inactive)
SK-MEL-28
  GI50: > 100 µM (inactive)
SNB-75
  GI50: 45.9 µM (inactive)
OVCAR-8
  GI50: > 100 µM (inactive)
OVCAR-3
  GI50: > 100 µM (inactive)
OVCAR-4
  GI50: > 100 µM (inactive)
MOLT-4
  GI50: > 100 µM (inactive)
OVCAR-5
  GI50: > 100 µM (inactive)
NCI-H522
  GI50: > 100 µM (inactive)

## CC1(C(=O)Nc2ccc3cc4ccccc4cc3c2)CC2(C)CC(C)(C1)C(O)NC2=O (centres undefined)
K562
  GI50: 73.1 µM (inactive)
A549
  GI50: 98.4 µM (inactive)
HCT-116
  GI50: > 100 µM (inactive)
SF-295
  GI50: 66.5 µM (inactive)
RPMI-8226
  GI50: 61.1 µM (inactive)
SF-539
  GI50: > 100 µM (inactive)
HCT-15
  GI50: > 100 µM
HT-29
  GI50: 92.5 µM (inactive)
SK-MEL-28
  GI50: > 100 µM (inactive)
SNB-75
  GI50: > 100 µM (inactive)
OVCAR-8
  GI50: > 100 µM (inactive)
OVCAR-3
  GI50: 70 µM (inactive)
OVCAR-4
  GI50: > 100 µM (inactive)
MOLT-4
  GI50: 20.6 µM (inactive)
OVCAR-5
  GI50: > 100 µM (inactive)
